Source: patent US5010057A, “Renin-inhibiting peptides having an aminomethyl side chain” (Bayer Aktiengesellschaft, priority 1988, dated 1991)
Starred links: 1 amine or outer side, 2 acyl side, 3 side chain; linkers in the order of their positions; H or OH if unused. Non-standard residues stand in square brackets, D forms with d. Residues, ends and D or L forms follow the SMILES beside them. *: point of attachment. X2 = NCC(C(=O)[*:2])C(O)[C@H](CC1CCCCC1)N[*:1]; X1 = CC(C)C[C@H](N[*:1])C(O)C(CN)C(=O)[*:2]; NHCH2(2-pyridyl) = c1ccc(CN*)nc1; Boc = CC(C)(C)OC(=O)*

Molecular target: T1, endogenous renin from human plasma (Homo sapiens, UniProt P00797)
T1 construct: endogenous renin from human plasma; from tissue; host or cells: pooled human plasma (EDTA)
T1 sequence (P00797 67-406): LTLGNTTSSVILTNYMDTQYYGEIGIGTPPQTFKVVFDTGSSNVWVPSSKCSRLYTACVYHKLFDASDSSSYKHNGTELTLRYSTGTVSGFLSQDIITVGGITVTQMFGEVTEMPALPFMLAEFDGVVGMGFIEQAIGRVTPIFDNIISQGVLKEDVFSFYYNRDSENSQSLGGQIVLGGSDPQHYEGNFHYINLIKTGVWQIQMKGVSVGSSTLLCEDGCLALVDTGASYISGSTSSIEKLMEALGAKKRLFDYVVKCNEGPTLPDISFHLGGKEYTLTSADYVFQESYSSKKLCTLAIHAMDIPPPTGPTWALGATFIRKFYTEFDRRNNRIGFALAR
Assay: In vitro test: inhibition of plasma renin activity (angiotensin I formation, radioimmunoassay)
Format: biochemical
Conditions: pooled human plasma, 37° C., pH 5.6; for IC50: 50% inhibition of plasma renin activity; for % Inhibition: plasma renin activity, test concentration not given
Procedure: The inhibitory strength of the peptides according to the invention against endogenous renin from human plasma is determined in vitro. Pooled human plasma is obtained with the addition of ethylenediamintetraacetic acid (EDTA) as an anticoagulant and stored at -20° C. The plasma renin activities (PRA) are determined as the rate of formation of angiotensin I from endogenous angiotensinogen and renin by incubation at 37° C. The reaction solution contains 150 μl of plasma, 3 μl of 6.6% strength 8-hydroxyquinoline sulphate solution, 3 μl of 10% strength dimercaprol solution and 144 μl of sodium phosphate buffer (0.2 M; 0.1% EDTA; pH 5.6) with or without the substances according to the invention in various concentrations. The angiotensin I formed per unit of time is determined using a radioimmunoassay (Sorin Biomedica, Italy). The percentage inhibition of the plasma renin activity is calculated by comparison of […]. The concentration range in which the substances claimed herein show a 50% inhibition of plasma renin activity is between 10^-4 to 10^-9 M.

| SMILES | IC50 | % Inhibition |
| --- | --- | --- |
| CC[C@H](C)[C@H](NC(=O)C(CN)C(O)[C@H](Cc1ccccc1)NC(=O)[C@H](Cc1c[nH]cn1)NC(=O)[C@H](Cc1ccccc1)NC(=O)OC(C)(C)C)C(=O)OC (some centres unmarked) [Example 77] | 11 µM | 96% |
| CC[C@H](C)[C@H](NC(=O)C(CN)C(O)[C@H](Cc1ccccc1)NC(=O)[C@H](Cc1c[nH]cn1)NC(=O)[C@H](Cc1ccccc1)NC(=O)OC(C)(C)C)C(=O)NCc1ccccn1 (some centres unmarked) [Example 79] | 2.5 µM | 95% |
| CC[C@H](C)[C@H](NC(=O)C1CN(Cc2ccccc2)OC1[C@H](Cc1ccccc1)NC(=O)[C@H](Cc1c[nH]cn1)NC(=O)[C@H](Cc1ccccc1)NC(=O)OC(C)(C)C)C(=O)OC (some centres unmarked) [Example 31] | – | 31% |
| CC[C@H](C)[C@H](NC(=O)C(CN)C(O)[C@H](CC(C)C)NC(=O)[C@H](Cc1c[nH]cn1)NC(=O)[C@H](Cc1ccccc1)NC(=O)OC(C)(C)C)C(=O)NCc1ccccn1 (some centres unmarked) [Example 96] | 1 µM | 100% |
| CC[C@H](C)[C@H](NC(=O)C1CN(Cc2ccccc2)OC1[C@H](CC1CCCCC1)NC(=O)[C@H](Cc1c[nH]cn1)NC(=O)[C@H](Cc1ccccc1)NC(=O)OC(C)(C)C)C(=O)OC (some centres unmarked) [Example 39] | – | 67% |
| CC[C@H](C)[C@H](NC(=O)C(CN)C(O)[C@H](CC(C)C)NC(=O)[C@H](Cc1c[nH]cn1)NC(=O)[C@H](Cc1ccccc1)NC(=O)[C@@H]1CCCN1C(=O)OC(C)(C)C)C(=O)NCc1ccccn1 (some centres unmarked) [Example 97] (Boc-PFH[X1]I-{NHCH2(2-pyridyl)}) | 0.022 µM | 100% |
| CC[C@H](C)[C@H](NC(=O)C(CN)C(O)[C@H](CC1CCCCC1)NC(=O)[C@H](Cc1c[nH]cn1)NC(=O)[C@H](Cc1ccccc1)NC(=O)OC(C)(C)C)C(=O)OC (some centres unmarked) [Example 82] | 1.4 µM | 89% |
| CC[C@H](C)[C@H](NC(=O)C(CN)C(O)[C@H](CC(C)C)NC(=O)[C@H](Cc1c[nH]cn1)NC(=O)[C@H](Cc1ccccc1)NC(=O)OC(C)(C)C)C(=O)OC (some centres unmarked) [Example 94] | 3.7 µM | 100% |
| CC[C@H](C)[C@H](NC(=O)C(CN)C(O)[C@H](CC1CCCCC1)NC(=O)[C@H](Cc1c[nH]cn1)NC(=O)[C@H](Cc1ccccc1)NC(=O)[C@@H]1CCCN1C(=O)OC(C)(C)C)C(=O)NCc1ccccn1 (some centres unmarked) [Example 85] (Boc-PFH[X2]I-{NHCH2(2-pyridyl)}) | 0.24 µM | 100% |
| CC[C@H](C)[C@H](NC(=O)C(CN)C(O)[C@H](CC1CCCCC1)NC(=O)[C@H](Cc1c[nH]cn1)NC(=O)[C@H](Cc1ccccc1)NC(=O)OC(C)(C)C)C(=O)NCc1ccccn1 (some centres unmarked) [Example 84] | 0.092 µM | 100% |
| CC(C)CNC(=O)C(CN)C(O)[C@H](CC1CCCCC1)NC(=O)[C@H](Cc1c[nH]cn1)NC(=O)[C@H](Cc1ccccc1)NC(=O)OC(C)(C)C (some centres unmarked) [Example 86] | 9 µM | 92% |
